Results on seven molecules are retold here after paper PMC8212739 (Clinical and Translational Science, 2021).

Bounds are passed on as bounds.

A word on the EC50: it is the concentration at which the effect is half-maximal.

Data set [1] deals with PHHs in liver MPS. In words: LDH production, hepatotoxicant sensitivity, liver MPS. It is filed as cell-based. As to conditions: Homo sapiens, 48 h, read-out: EC50, LDH production.
The test system of data set [2] is PHHs in liver MPS. In words: Albumin production, hepatotoxicant sensitivity, liver MPS. In kind it is cell-based. Particulars: Homo sapiens, 48 h, read-out: EC50, albumin secretion.
Data set [3] concerns PHHs in spheroids. Kind of data set: LDH production, hepatotoxicant sensitivity, spheroids. In kind it is cell-based. As to conditions: Homo sapiens, 48 h, read-out: EC50, LDH production.
The test system of data set [4] is PHHs in spheroids. In words: Albumin production, hepatotoxicant sensitivity, spheroids. In kind it is cell-based. As to conditions: Homo sapiens, 48 h, read-out: EC50, albumin secretion.
The test system of data set [5] is PHHs in sandwich cultures. Kind of data set: LDH production, hepatotoxicant sensitivity, sandwich cultures. It is filed as cell-based. As to conditions: Homo sapiens, 48 h, read-out: EC50, LDH production.
The test system of data set [6] is PHHs in sandwich cultures. In words: Albumin production, hepatotoxicant sensitivity, sandwich cultures. It is filed as cell-based. Particulars: Homo sapiens, 48 h, read-out: EC50, albumin secretion.
The subject of data set [7] is PHHs in spheroids. Particulars: spheroids vs liver MPS.
Data set [8] concerns PHHs in sandwich cultures. As to conditions: sandwich cultures vs liver MPS.
Data set [9] concerns CYP3A4. In words: in vitro. Particulars: human, primary human hepatocytes (PHHs) cultured in liver MPS.
In data set [10] the test system is CYP3A4. In words: in vitro. As to conditions: human, primary human hepatocytes (PHHs) cultured as 3D spheroids.
In data set [11] the test system is CYP3A4. Kind of data set: in vitro. Particulars: human, primary human hepatocytes (PHHs) in 2D sandwich cultures.
Data set [12] is described as follows: in vitro. As to conditions: human, primary human hepatocytes (PHHs) cultured as 3D spheroids.
The nature of data set [13]: in vitro. As to conditions: human, primary human hepatocytes (PHHs) in 2D sandwich cultures.
The nature of data set [14]: Stability of glucuronidated diclofenac in maintenance medium at 37°C. It is filed as physicochemical. As to conditions: 50 µM.
For another data set, the system named is PHHs in the liver MPS. Kind of data set: Drug metabolism and phase II metabolites in the liver MPS.
For data set [15] the following is noted: cited from earlier work.

On to `C[C@H]1O[C@@H](O[C@H]2[C@@H](O)C[C@H](O[C@H]3[C@@H](O)C[C@H](O[C@H]4CC[C@@]5(C)[C@H](CC[C@@H]6[C@@H]5C[C@@H](O)[C@]5(C)[C@@H](C7=CC(=O)OC7)CC[C@]65O)C4)O[C@@H]3C)O[C@@H]2C)C[C@H](O)[C@@H]1O` [Digoxin, digoxin], for which the EC50 in the data set on PHHs in liver MPS [1] was 146 µM; in the data set with PHHs in liver MPS [2], 41.6 µM; in the data set on PHHs in spheroids [3], 8.1 µM; in the data set with PHHs in spheroids [4] it was 5.4 µM; in data set [5], 102 µM; in data set [6], 157 µM. The figures for the “R, Spearman correlation of CYP3A4 response relative to liver MPS” value (with PHHs in spheroids [7]; in data set [8]) were −0.04 and […], respectively. In addition, the 50% effective concentration (EC50) at 48 h in the data set on CYP3A4 [9] is […]; in the data set on CYP3A4 [10] it was […]; in the data set with CYP3A4 [11], […]. Moreover, the EC50 at 2 days in the data set “in vitro [12]” was determined as 6.4 µM; in the data set “in vitro [13]” it was 122 µM.

On to `O=C(Cc1ccccc1Nc1c(Cl)cccc1Cl)O[C@@H]1O[C@H](C(=O)O)[C@@H](O)[C@H](O)[C@H]1O` [glucuronidated diclofenac, diclofenac glucuronide], for which the “Time of incubation to become unstable in solution” value in data set [14] is listed as at most 2 h. In the data set on PHHs in the liver MPS (after 48 h, diclofenac dosed), the “Detection in the MPS medium” value is reported as “not detected”.

`CC/C(=C(\c1ccccc1)c1ccc(OCCN(C)C)cc1)c1ccccc1` [Tamoxifen, tamoxifen]: the response in the data set “in vitro [13]” was half-maximal at 23.8 µM (EC50 at 2 days).

For `N[C@@H]1[C@H]2CN(c3nc4c(cc3F)c(=O)c(C(=O)O)cn4-c3ccc(F)cc3F)C[C@@H]12` [trovafloxacin], the Hepatotoxicity in humans result in data set [15] was “induces idiosyncratic hepatotoxicity”.

As to `Cc1c(C)c2c(c(C)c1O)CCC(C)(COc1ccc(CC3SC(=O)NC3=O)cc1)O2` (stereo not drawn) [Troglitazone, troglitazone], the EC50 in the data set on PHHs in liver MPS [1] stood at 407 µM; with PHHs in liver MPS [2], 34.6 µM; in the data set on PHHs in spheroids [3] it was 94.2 µM; in the data set with PHHs in spheroids [4], 51.9 µM; in data set [5] it was 77.7 µM; in [6], 2.6 µM. Also, the “R, Spearman correlation of CYP3A4 response relative to liver MPS” value in the data set on PHHs in spheroids [7] is 0.80; in data set [8], 0.77. Further, the values for the half-maximal effective concentration (EC50) at 48 h in the data set on CYP3A4 [9], with CYP3A4 [10] and in the data set on CYP3A4 [11] were […], […] and […], respectively. In addition, the EC50 at 2 days in “in vitro [12]” was found to be 67.1 µM; in the data set “in vitro [13]”, 35.1 µM. In the data set on PHHs in the liver MPS (50 and 100 µM, 48 h of incubation), the “Extent of metabolism of parent in liver MPS medium” value is on record as “almost completely metabolized”.

`C[C@H]1COc2c(N3CCN(C)CC3)c(F)cc3c(=O)c(C(=O)O)cn1c23` [levofloxacin]: the Hepatotoxicity result in [15] is “does not cause hepatotoxicity”.

Turning to `O=C(O)Cc1ccccc1Nc1c(Cl)cccc1Cl` [diclofenac], the “Concentration in liver MPS culture medium over time” value with PHHs in the liver MPS (50 µM, 4, 8, 24 and 48 hours) is reported as “decrease over time”.
